Data published in PMC8655505, “Stimulation of the Runx2 P1 promoter by collagen-derived dipeptide prolyl-hydroxyproline bound to Foxg1 and Foxo1 in osteoblasts” (Bioscience Reports, 2021).
Square brackets hold non-standard residues; d marks the D form. Peptide text beside a SMILES is read from it. Hyp = O=C(O)[C@@H]1C[C@@H](O)CN1

Biological target: T1, Foxo1 (Mus musculus, UniProt Q9R1E0)
T1 construct: full-length
Experiment: competition of free Pro-Hyp with (Pro-Hyp-Gly)5-linked magnetic beads, Western blot
Assay type: binding
Details: free Pro-Hyp 0.1 or 10 mM; pH 7.8, 150 mM KCl, 4 °C overnight; cell extract

T1 sequence (Q9R1E0 whole entry): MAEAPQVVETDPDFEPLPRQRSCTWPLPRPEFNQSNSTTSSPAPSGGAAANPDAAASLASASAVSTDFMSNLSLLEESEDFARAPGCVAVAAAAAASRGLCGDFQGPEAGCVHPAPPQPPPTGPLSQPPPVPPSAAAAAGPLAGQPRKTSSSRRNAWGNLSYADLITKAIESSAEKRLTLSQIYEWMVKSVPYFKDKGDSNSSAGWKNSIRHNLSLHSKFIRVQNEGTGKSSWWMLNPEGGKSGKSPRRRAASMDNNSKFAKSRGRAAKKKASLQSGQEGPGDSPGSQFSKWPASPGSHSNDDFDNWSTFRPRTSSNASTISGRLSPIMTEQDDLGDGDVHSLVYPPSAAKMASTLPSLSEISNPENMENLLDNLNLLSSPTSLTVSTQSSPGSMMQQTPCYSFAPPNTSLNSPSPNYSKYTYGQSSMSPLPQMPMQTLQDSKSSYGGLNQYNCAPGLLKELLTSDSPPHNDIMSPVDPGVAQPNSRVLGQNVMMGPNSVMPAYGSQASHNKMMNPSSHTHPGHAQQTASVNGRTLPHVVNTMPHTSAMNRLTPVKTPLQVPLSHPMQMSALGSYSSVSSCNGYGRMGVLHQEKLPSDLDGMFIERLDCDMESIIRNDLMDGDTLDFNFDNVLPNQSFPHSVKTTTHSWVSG

## O=C(O)[C@@H]1C[C@@H](O)CN1C(=O)[C@@H]1CCCN1 [Pro-Hyp] (H-Pro-[Hyp]-OH)
  competition of free Pro-Hyp with (Pro-Hyp-Gly)5-linked magnetic beads, Western b: These data suggest that Pro-Hyp binds to Foxo1.
